From patent US12150940B2, “WASp-protecting small molecules, compositions, methods and uses thereof in the treatment of innate and acquired immune-related disorders or conditions” (BAR ILAN UNIVERSITY, priority 2016, dated 2024)

How the values were obtained:
WASp = biological target: T1, WASp (Homo sapiens, UniProt P42768); test: WASp expression in anti-CD3/anti-CD28-activated PBMCs (western blot); assay type: cell-based
T1 construct: endogenous in cells; host or cells: primary human platelets from healthy donors
T1 sequence (P42768 1-502): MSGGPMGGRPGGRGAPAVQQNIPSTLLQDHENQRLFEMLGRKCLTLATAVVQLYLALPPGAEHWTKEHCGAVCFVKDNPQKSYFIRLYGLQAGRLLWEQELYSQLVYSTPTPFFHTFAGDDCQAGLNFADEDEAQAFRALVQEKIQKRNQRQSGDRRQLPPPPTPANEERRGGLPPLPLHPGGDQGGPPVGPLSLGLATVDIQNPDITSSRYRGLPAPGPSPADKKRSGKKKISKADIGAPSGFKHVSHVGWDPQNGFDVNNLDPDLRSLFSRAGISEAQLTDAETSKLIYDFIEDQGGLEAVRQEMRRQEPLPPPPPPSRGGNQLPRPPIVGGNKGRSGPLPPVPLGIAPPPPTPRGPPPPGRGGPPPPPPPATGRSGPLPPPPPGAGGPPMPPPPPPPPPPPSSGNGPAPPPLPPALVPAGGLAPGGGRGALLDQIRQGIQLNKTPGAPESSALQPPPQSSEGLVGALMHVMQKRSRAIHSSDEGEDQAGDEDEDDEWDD
Experimental: FIG. 4C-4D. Freshly-isolated PBMCs were incubated with SMC #6 or control at 37° C. for the indicated times. The PBMCs were either co-stimulated (+) with anti-CD3 and anti-CD28 or left unstimulated (−), followed by lysis. Lysates were analyzed for WASp expression by immunoblotting with anti-WASp and anti-GAPDH as loading control (FIG. 4C). Relative WASp expression was determined by densitometric analysis and is presented in a summarizing graph of FIG. 4D. Error bars represent the SE from the mean. P values were calculated versus DMSO-treated control cells by two-tailed Student's t-test, and is indicated therein. Data are representative of three independent experiments.
Jurkat T-cells (FIG. 5A) or Freshly-isolated PBMCs (FIG. 5B) were incubated for 15 min at 37° C. with either control or the indicated WASp-binding SMCs, followed by co-stimulation with anti-CD3 and anti-CD28 and lysis. Freshly-isolated platelets were incubated for 15 min at 37° C. with either control or the indicated WASp-binding SMCs, followed by stimulation with TRAP-6 (10 μM) and lysis (FIG. 5C). Lysates were analyzed for WASp expression by immunoblotting with anti-WASp and anti-GAPDH as loading control. Western blot is representative of three independent experiments. […] Relative WASp expression was determined by densitometric analysis. Error bars represent the SE from the mean. […]

[1] = tested on: WAS−/−/WASp R86C Jurkat T-cells; test: Lymphocyte activation (CD69, flow cytometry) in WAS−/−/WASp R86C cells; assay type: cell-based, human; settings: cells exclusively expressing YFP-WASp R86C, PMA and Ionomycin, vs control
Experimental: 1×10^6 WASp knockout Jurkat T-cell line that expresses only exogenous YFP-WASp harboring the common human WAS and XLT mutation, R86C (WAS−/−/WASp R86C) was pretreated with either negative control or SMC #34. Cells that completely lack WASp expression (WAS^−/−) were also treated with the control. The cells were then stimulated with PMA and Ionomycin. After incubation, the cells were stained with PE-Cy5™-conjugated mouse anti-human CD69 and lymphocyte activation was measured by flow cytometry as described in Experimental procedures. Histogram of negative control versus SMC #34 is presented.
PBMCs or Jurkat cells (about 3×10^5 cells) were incubated for 4 h, at 37° C. with 50 ng/ml PMA and 250 ng/ml lonomycin, or 40 ng/ml PMA and 6 μM Ionomycin, respectively, or left untreated. After incubation, the cells were collected and stained with 1 μg/ml anti-active human LFA-1 antibody (purified from KIM127 hybridoma sup, ATCC Cat #: CRL-2838, Sigma) for 30 min in 37° C., followed by staining with Alexa488-Fluor goat anti-mouse IgG1 secondary antibody (Molecular Probes, Cat #: A-21121), 30 min on ice. Cells were then co-stained with PE-Cy5™-conjugated mouse anti-human CD69 (BD Pharmingen, Cat #: 555532) to measure lymphocyte activation.

WASp degradation in PBMCs (WASp; after 15 min of incubation) | WASp degradation in PBMCs (WASp; after 2 h of incubation, compared with 15 min) | Structure (SMILES) | lymphocyte activation (CD69) [1]
attenuated WASp degradation | more pronounced | CC(=O)N[C@H]1C[C@@H](c2ccc3c(c2)nnn3C)O[C@@H](c2ccc(Cl)cc2)C1 [SMC #6, N-[(2R,4R,6S)-2-(4-chlorophenyl)-6-(1-methylbenzotriazol-5-yl)oxan-4-yl]acetamide] | 
 |  | CC1CCCC(C)N1C(=O)CSc1nnc(COc2cccc3cccnc23)o1 (stereo not drawn) [SMC #34, 1-(2,6-dimethylpiperidin-1-yl)-2-[[5-(quinolin-8-yloxymethyl)-1,3,4-oxadiazol-2-yl]sulfanyl]ethanone] | upregulation of lymphocyte activation
